From US20150152083A1, “Compounds and Compositions for Modulating EGFR Activity” (IRM LLC, A Delaware Limited Liability Company, priority 2012, published 2015)

Legend:
EGFR(L858R/T790M) [1] = biological target: T1, EGFR(L858R/T790M) (Homo sapiens, UniProt P00533, L858R/T790M); assay: EGFR biochemical assay (HTRF), IC50 determination; parameters: purchased from Carna (GST-a.a. 669-1210); purchased Carna; conditions: 10 μM ATP
Procedure: All EGFR biochemical assays were carried out by HTRF method. The EGFR(L858RT790M) enzyme were purchased from Carna (GST-a.a. 669-1210). The substrate peptide Biotin-TK-peptide was purchased from Cis-Bio. The reaction mixtures contained 1 μM peptide substrate, 10 μM ATP, and 0.036 nM EGFR(L858RT790M) in the reaction buffer (50 mM HEPES pH 7.1, 10 mM MgCl2, 0.01% BSA, 1 mM TCEP and 0.1 mM Na3VO4) at a final volume of 10 μL. All reactions were carried out at room temperature in white ProxiPlate™ 384-well Plus plates (PerkinElmer) and were quenched with 5 μL of 0.2 M EDTA at 60 min Five μL of the detection reagents (2.5 ng PT66K and 0.05 μg SAXL per well) were added, the plates were incubated at room temperature for 1 h and then read in EnVision reader. […] For no-preincubation condition, the compounds were added to the assay solution containing ATP and peptide, and the reaction was initiated by addition of enzyme. For pre-incubation conditions, the compounds were added to the assay solution containing enzyme and peptide, and pre-incubated at room temperature for desired period of time, then the reaction was initiated by addition of ATP.
Target sequence in this assay (P00533 669-1210 T790M/L858R): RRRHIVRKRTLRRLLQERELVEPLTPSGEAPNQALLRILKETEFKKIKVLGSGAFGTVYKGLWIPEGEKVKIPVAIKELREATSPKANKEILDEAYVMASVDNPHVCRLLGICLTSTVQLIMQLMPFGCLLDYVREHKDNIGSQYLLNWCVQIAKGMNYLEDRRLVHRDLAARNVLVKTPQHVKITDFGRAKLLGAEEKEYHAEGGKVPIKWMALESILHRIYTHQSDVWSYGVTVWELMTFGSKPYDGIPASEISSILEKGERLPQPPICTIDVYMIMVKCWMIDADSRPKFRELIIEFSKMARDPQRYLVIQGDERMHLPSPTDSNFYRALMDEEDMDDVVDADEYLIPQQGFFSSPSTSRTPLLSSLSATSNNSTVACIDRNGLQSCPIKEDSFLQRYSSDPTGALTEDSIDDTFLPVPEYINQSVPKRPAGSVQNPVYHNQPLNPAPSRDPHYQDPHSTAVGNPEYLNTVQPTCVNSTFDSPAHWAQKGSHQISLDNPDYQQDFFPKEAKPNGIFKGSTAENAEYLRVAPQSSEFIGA

EGFR (WT) = biological target: T2, EGFR (WT) (Homo sapiens, UniProt P00533); assay: EGFR target modulation in engineered NIH3T3 cell lines (phospho-EGFR AlphaLISA); assay type: cell-based; conditions: NIH3T3 cells expressing human EGFR WT; 3 hours compound; induced with 50 ng/ml EGF
T2 construct: host or cells: NIH3T3
T2 sequence (P00533 25-1210): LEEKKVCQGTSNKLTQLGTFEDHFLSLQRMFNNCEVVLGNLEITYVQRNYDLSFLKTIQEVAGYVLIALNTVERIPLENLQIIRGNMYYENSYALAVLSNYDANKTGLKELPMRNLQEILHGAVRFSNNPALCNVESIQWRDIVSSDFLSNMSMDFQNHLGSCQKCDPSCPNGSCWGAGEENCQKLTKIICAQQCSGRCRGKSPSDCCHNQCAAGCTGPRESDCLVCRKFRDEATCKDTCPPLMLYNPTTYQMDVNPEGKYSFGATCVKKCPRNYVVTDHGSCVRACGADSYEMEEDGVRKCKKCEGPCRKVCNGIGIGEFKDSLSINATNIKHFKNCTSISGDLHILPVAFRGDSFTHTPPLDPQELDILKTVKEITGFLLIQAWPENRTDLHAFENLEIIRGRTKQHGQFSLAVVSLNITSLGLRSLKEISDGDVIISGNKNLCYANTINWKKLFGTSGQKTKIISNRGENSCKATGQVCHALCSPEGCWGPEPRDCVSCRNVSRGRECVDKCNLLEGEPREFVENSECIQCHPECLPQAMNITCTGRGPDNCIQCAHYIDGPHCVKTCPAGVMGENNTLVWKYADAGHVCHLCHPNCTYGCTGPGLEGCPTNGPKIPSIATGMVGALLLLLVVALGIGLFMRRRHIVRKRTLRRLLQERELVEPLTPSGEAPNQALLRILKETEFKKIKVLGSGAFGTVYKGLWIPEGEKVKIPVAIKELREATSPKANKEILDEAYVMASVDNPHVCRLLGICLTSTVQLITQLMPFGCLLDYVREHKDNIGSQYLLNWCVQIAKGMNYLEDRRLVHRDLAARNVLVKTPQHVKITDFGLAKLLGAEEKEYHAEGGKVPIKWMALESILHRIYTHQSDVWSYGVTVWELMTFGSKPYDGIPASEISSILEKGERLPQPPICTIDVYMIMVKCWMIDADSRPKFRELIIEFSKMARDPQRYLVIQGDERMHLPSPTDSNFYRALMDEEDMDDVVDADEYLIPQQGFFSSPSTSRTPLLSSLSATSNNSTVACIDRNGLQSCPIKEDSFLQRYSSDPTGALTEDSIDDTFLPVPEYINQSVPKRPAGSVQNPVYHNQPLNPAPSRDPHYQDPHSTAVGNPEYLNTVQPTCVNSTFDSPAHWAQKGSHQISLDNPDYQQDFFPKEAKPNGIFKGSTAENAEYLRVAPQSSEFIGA
Procedure: (§1) EGFR Target Modulation in Engineered NIH3T3 Cell Lines
(§2) NIH3T3 cell lines expressing human EGFR (WT, L858R, and L858RT790M) (obtained from Matthew Meyerson's Lab at DFCI) were maintained in 10% FBS/DMEM supplemented with 100 μg/ml Penicillin/Streptomycin (Hyclone #SV30010) and 2 μg/ml Puromycin. The cells were harvested with 0.05% Trypsin/EDTA (Hyclone #SH30236.01), re-suspended in 5% FBS/DMEM Pen/Strep without Puromycin and plated at 9,000 cells per well in 50 μl of media in a 384-well black plate with clear bottoms (Greiner #789068G). The cells were allowed to incubate overnight in a 37° C., 5% CO2 humidified tissue culture incubator. A 12-point test compound curve was prepared by serial diluting a 10 μM stock 1:3 in DMSO in a 384-well compound plate (Greiner #789201L). The serial diluted compounds were transferred to the plate containing cells by using a 50 nl Pin Head device (Perkin Elmer) and the cells were placed back in the incubator for 3 hours. Only the EGFR WT-expressing cells were induced with 50 ng/ml EGF (Preprotech #AF-100-15) for 5 minutes before lysis. The media was removed and cells were lysed in 25 μl of Lysis buffer containing protease and phosphatase inhibitors (1% Triton X-100, 20 mM Tris, pH 7.5, 1 mM EDTA, 1 mM EGTA, 150 mM NaCl, 1× complete cocktail inhibitor (Roche #11 697 498 001), 1× Phosphatase Inhibitor Cocktail Set II and Set III (Sigma #P5726 and #P0044)). The plates were shaken at 4° C. for 5 minutes with foil top at maximum speed. An aliquot of 5 μl from each well was transferred to ProxiPlate™ 384-well Plus plates (PE #6008289). The plates were sealed with a foil top and frozen at −80° C. and thawed when needed.
(§3) The frozen aliquots were thawed and briefly centrifuged. All antibodies and beads were diluted in 1× AlphaLISA HiBlock Buffer (PE #AL004C). Biotinylated anti-phospho-EGFR (Y1068) (Cell Signaling #4031) was incubated with the lysate for 1 hour at room temperature at 1 nM final concentration. Goat anti-total EGFR (R&D Systems #AF231) was added and allowed to equilibrate for 1 hour at room temperature at 1 nM final concentration. Then, 10 μl of mixed beads (AlphaScreen Streptavidin Donor Beads (PE #6760002S) and AlphaLISA anti-goat IgG Acceptor Beads (PE #AL107C)) was equilibrated for 1.5 hours before reading on EnVision plate reader using the built-in settings for AlphaScreen.
(§4) Cells untreated (L858R and L858RT790M) or EGF-induced (WT) were set to 100% maximum response. For a negative control, 10 μM HKI-272 was used to normalize data to 0% of maximum response. With these parameters, the IC50's for each compound in each cell line was calculated using non-linear curve fitting analysis.

EGFR (L858R) = biological target: T3, EGFR (L858R) (Homo sapiens, UniProt P00533, L858R); assay: as above; assay type: cell-based; conditions: NIH3T3 cells expressing human EGFR L858R; 3 hours compound
T3 construct: host or cells: NIH3T3
T3 sequence (P00533 25-1210 L858R): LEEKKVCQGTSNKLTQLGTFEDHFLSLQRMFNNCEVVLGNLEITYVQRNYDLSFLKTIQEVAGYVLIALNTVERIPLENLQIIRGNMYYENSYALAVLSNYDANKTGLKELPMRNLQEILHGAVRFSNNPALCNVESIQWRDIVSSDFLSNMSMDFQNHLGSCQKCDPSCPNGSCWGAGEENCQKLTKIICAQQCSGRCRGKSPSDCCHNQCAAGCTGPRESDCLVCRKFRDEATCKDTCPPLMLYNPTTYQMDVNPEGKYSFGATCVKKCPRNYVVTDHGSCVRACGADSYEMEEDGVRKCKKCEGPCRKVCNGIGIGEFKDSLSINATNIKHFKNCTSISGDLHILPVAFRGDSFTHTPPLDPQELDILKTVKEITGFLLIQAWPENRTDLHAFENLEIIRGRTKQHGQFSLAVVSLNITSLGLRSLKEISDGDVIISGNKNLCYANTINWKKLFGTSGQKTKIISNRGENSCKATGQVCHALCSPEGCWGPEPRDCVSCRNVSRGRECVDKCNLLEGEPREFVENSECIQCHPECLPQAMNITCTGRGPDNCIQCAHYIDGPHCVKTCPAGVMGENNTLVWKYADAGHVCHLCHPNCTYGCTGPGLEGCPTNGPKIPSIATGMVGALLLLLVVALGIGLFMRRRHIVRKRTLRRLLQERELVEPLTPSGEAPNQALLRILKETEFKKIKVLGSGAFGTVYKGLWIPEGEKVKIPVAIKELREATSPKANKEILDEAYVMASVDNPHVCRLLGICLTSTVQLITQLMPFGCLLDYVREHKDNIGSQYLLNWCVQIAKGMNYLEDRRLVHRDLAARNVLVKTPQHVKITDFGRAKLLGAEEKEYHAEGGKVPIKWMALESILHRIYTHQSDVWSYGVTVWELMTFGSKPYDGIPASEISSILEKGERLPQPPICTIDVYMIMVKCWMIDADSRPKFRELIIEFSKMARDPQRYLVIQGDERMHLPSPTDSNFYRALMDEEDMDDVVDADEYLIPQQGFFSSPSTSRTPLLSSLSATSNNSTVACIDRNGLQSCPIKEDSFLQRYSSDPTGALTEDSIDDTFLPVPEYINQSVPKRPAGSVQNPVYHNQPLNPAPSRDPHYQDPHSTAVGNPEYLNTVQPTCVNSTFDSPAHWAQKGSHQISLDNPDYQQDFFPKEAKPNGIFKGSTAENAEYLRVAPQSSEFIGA
Procedure: as §1, §2, §3, §4

EGFR(L858R/T790M) [2] = biological target: T1, EGFR(L858R/T790M); assay: as above; assay type: cell-based; parameters: host or cells: NIH3T3; conditions: NIH3T3 cells expressing human EGFR L858R/T790M; 3 hours compound
Procedure: as §1, §2, §3, §4
Target sequence in this assay (P00533 25-1210 T790M/L858R): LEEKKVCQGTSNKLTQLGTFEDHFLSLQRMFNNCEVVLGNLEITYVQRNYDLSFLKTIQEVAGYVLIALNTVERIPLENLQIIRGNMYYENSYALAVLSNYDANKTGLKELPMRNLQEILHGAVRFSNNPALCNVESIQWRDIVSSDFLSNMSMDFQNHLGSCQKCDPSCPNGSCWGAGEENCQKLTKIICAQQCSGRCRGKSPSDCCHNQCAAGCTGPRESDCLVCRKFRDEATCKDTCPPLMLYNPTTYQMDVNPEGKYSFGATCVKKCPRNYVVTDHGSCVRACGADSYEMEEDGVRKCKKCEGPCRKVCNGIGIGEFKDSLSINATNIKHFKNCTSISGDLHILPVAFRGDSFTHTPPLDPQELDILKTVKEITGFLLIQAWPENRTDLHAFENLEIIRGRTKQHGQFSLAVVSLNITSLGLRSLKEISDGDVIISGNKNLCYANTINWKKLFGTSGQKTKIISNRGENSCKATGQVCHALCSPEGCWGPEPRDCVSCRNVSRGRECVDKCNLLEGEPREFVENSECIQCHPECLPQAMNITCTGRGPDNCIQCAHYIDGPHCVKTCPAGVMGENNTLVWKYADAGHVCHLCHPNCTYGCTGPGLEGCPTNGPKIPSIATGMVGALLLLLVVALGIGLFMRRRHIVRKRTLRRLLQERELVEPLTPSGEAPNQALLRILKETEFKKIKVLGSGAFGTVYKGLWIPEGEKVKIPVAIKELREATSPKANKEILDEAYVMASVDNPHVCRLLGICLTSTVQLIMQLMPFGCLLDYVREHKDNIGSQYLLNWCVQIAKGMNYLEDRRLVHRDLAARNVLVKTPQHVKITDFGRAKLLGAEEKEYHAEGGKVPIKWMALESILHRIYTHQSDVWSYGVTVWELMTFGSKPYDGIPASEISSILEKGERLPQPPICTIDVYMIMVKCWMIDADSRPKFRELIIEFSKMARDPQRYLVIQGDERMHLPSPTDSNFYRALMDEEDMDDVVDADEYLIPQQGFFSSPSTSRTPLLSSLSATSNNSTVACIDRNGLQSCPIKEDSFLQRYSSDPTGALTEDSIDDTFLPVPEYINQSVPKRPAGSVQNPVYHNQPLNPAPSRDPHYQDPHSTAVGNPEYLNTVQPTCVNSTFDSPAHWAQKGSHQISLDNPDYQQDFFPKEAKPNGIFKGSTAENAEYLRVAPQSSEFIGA

[3] = EGFR (L858R/T790M) IC50 (μM) 90 min pre-incubation, 90 min pre-incubation
[4] = no pre-incubation, read-out: EGFR (L858R/T790M) IC50 (μM) No pre-incubation

Row | IC50 (EGFR(L858R/T790M) [1]; [3]) | IC50 (EGFR(L858R/T790M) [1]; [4]) | IC50 (EGFR (WT)) | IC50 (EGFR (L858R)) | IC50 (EGFR(L858R/T790M) [2]) | SMILES
1 | 0.21 µM | 0.46 µM | – | – | – | C=CC(=O)N[C@H]1CC[C@@H](n2c(NC(=O)c3cccc(C(F)(F)F)c3)nc3cc(C)ccc32)CC1 [Example 8-8, N-{5-methyl-1-[(1S,4S)-4-(prop-2-enamido)cyclohexyl]-1H-1,3-benzodiazol-2-yl}-3-(trifluoromethyl)benzamide]
2 | 0.079 µM | > 50 µM | – | – | – | C=CC(=O)N[C@H]1CCCCC1n1c(NC(=O)c2cccc(C(F)(F)F)c2)nc2cc(C)ccc21 (stereo partly drawn) [Example 8-6, N-{5-methyl-1-[(1R,25)-2-(prop-2-enamido)cyclohexyl]-1H-1,3-benzodiazol-2-yl}-3-(trifluoromethyl)benzamide]
3 | 0.046 µM | 0.62 µM | > 10 µM | > 10 µM | 0.83 µM | C=CC(=O)NCCCn1c(NC(=O)c2cccc(C(F)(F)F)c2)nc2cc(C)ccc21 [Example 8-4, N-{5-methyl-1-[3-(prop-2-enamido)propyl]-1H-1,3-benzodiazol-2-yl}-3-(trifluoromethyl)benzamide]
4 | 0.82 µM | 2.64 µM | – | – | – | C=CC(=O)NCCn1c(NC(=O)c2cccc(C(F)(F)F)c2)nc2cc(C)ccc21 [Example 8-5, N-{5-methyl-1-[2-(prop-2-enamido)ethyl]-1H-1,3-benzodiazol-2-yl}-3-(trifluoromethyl)benzamide]
5 | 0.31 µM | 2.3 µM | – | – | – | C=CC(=O)N[C@@H]1CCCC[C@H]1n1c(NC(=O)c2cccc(C(F)(F)F)c2)nc2cc(C)ccc21 [Example 8-7, N-{5-methyl-1-[(1R,2R)-2-(prop-2-enamido)cyclohexyl]-1H-1,3-benzodiazol-2-yl}-3-(trifluoromethyl)benzamide]
6 | – | – | > 10 µM | 0.54 µM | 0.041 µM | C=CC(=O)N[C@@H]1CCC[C@H](n2c(NC(=O)c3cccc(C(F)(F)F)c3)nc3cc(C)ccc32)C1 (racemic) [Example 8-1, N-{5-methyl-1-[(1S,3R)-3-(prop-2-enamido)cyclohexyl]-1H-1,3-benzodiazol-2-yl}-3-(trifluoromethyl)benzamide]
7 | 0.15 µM | 0.72 µM | – | – | – | C=CC(=O)NC1CCC(n2c(NC(=O)c3cccc(C(F)(F)F)c3)nc3cc(C)ccc32)C1 (racemic) [Example 8-3, N-{5-methyl-1-[3-(prop-2-enamido)cyclopentyl]-1H-1,3-benzodiazol-2-yl}-3-(trifluoromethyl)benzamide]
8 | 0.57 µM | 0.22 µM | – | – | – | C=CC(=O)N[C@H]1CC[C@H](n2c(NC(=O)c3cccc(C(F)(F)F)c3)nc3cc(C)ccc32)CC1 [Example 8-9, N-{5-methyl-1-[(1R,4R)-4-(prop-2-enamido)cyclohexyl]-1H-1,3-benzodiazol-2-yl}-3-(trifluoromethyl)benzamide]

The next lines start with the molecule.

Row | SMILES | IC50 (EGFR(L858R/T790M) [1]; [3]) | IC50 (EGFR(L858R/T790M) [1]; [4]) | IC50 (EGFR (WT)) | IC50 (EGFR (L858R)) | IC50 (EGFR(L858R/T790M) [2])
9 | C=CC(=O)Nc1cccc(-n2c(NC(=O)c3cccc(C(F)(F)F)c3)nc3cccc(C)c32)c1 [Example 2-13, N-{7-methyl-1-[3-(prop-2-enamido)phenyl]-1H-1,3-benzodiazol-2-yl}-3-(trifluoromethyl)benzamide] | 0.004 µM | 0.057 µM | > 10 µM | 0.31 µM | 0.079 µM
10 | C=CC(=O)Nc1ccc(C)c(-n2c(NC(=O)c3ccnc(C)c3)nc3cccc(Cl)c32)c1 [Example 2-16, N-(1-(5-acrylamido-2-methylphenyl)-7-chloro-1H-benzo[d]imidazol-2-yl)-2-methylisonicotinamide] | 1.07 µM | 9.38 µM | – | – | –
11 | Cc1cc(C(=O)Nc2nc3cccc(Cl)c3n2-c2cc(NC(=O)/C=C/CN(C)C)ccc2C)ccn1 [Example 2-15, (E)-N-(7-chloro-1-(5-(4-(dimethylamino)but-2-enamido)-2-methylphenyl)-1H-benzo[d]imidazol-2-yl)-2-methylisonicotinamide] | 1.06 µM | 20 µM | – | – | –
12 | C=CC(=O)N[C@@H]1CC[C@H](n2c(NC(=O)c3cccc(C(F)(F)F)c3)nc3cc(C)ccc32)C1 (single isomer, unassigned) [Example 9-1B] | 0.15 µM | 0.29 µM | – | – | –
13 | C=CC(=O)Nc1cc(-n2c(NC(=O)c3ccnc(C)c3)nc3cccc(Cl)c32)ccc1C [Example 2-17, N-(1-(3-acrylamido-4-methylphenyl)-7-chloro-1H-benzo[d]imidazol-2-yl)-2-methylisonicotinamide] | 0.006 µM | 0.065 µM | – | – | –
14 | C=CC(=O)N[C@@H]1CCC[C@H](n2c(NC(=O)c3cccc(C(F)(F)F)c3)nc3cc(C)ccc32)C1 (single isomer, unassigned) [Example 9-2B] | – | – | > 10 µM | > 10 µM | 0.4 µM
15 | C=CC(=O)N[C@H]1CCC[C@@H](n2c(NC(=O)c3cccc(C(F)(F)F)c3)nc3cc(C)ccc32)C1 (single isomer, unassigned) [Example 9-2A] | – | – | > 10 µM | 0.54 µM | 0.032 µM
16 | C=CC(=O)Nc1ccc(-n2c(NC(=O)c3cccc(C(F)(F)F)c3)nc3cc(C)ccc32)cc1 [Example 2-11, N-{5-methyl-1-[4-(prop-2-enamido)phenyl]-1H-1,3-benzodiazol-2-yl}-3-(trifluoromethyl)benzamide] | 0.15 µM | 1.04 µM | – | – | –
17 | C=CC(=O)Nc1cc(C)cc(-n2c(NC(=O)c3ccnc(C)c3)nc3cccc(Cl)c32)c1 [Example 2-18, N-(1-(3-acrylamido-5-methylphenyl)-7-chloro-1H-benzo[d]imidazol-2-yl)-2-methylisonicotinamide] | 0.046 µM | 0.627 µM | – | – | –
18 | C=CC(=O)Nc1ccccc1-n1c(NC(=O)c2cccc(C(F)(F)F)c2)nc2cc(C)ccc21 [Example 2-12, N-{5-methyl-1-[2-(prop-2-enamido)phenyl]-1H-1,3-benzodiazol-2-yl}-3-(trifluoromethyl)benzamide] | 0.1 µM | 1.8 µM | – | – | –
19 | C/C=C/C(=O)Nc1cccc(-n2c(NC(=O)c3cccc(C(F)(F)F)c3)nc3cc(C)ccc32)c1 [Example 2-14, N-{1-[3-(but-2-enamido)phenyl]-5-methyl-1H-1,3-benzodiazol-2-yl}-3-(trifluoromethyl)benzamide] | 0.101 µM | 0.36 µM | – | – | –
20 | C=CC(=O)N[C@H]1CC[C@@H](n2c(NC(=O)c3cccc(C(F)(F)F)c3)nc3cc(C)ccc32)C1 (single isomer, unassigned) [Example 9-1A] | 0.08 µM | 0.75 µM | – | – | –
